Measurements as given in ChEMBL document CHEMBL5523747, “Discovery of a Series of Orally Bioavailable Androgen Receptor Degraders for the Treatment of Prostate Cancer” (J Med Chem, 2024).
Active and inactive are the calls of the source. The rule behind the calls is not given here.

Assays:
[1] = Half life in CD-1 mouse at 1 mg/kg, po and 0.5 mg/kg, iv; assay type: ADME, organism-based; conditions: in vivo
[2] = Volume of distribution at steady state in Beagle dog at 1 mg/kg, po and 0.5 mg/kg, iv infusion over 0.25 hrs; assay type: ADME, organism-based, Canis lupus familiaris; conditions: in vivo
[3] = biological target: Protein cereblon/Androgen receptor (Homo sapiens, UniProt P10275+Q96SW2, L702H); assay: PROTAC activity at CRBN/AR L702H mutant (unknown origin) expressed in human LNCaP cells assessed as protein degradation measured after 24 hrs incubation by imaging IF assay; assay type: cell-based
[4] = Volume of distribution at steady state in CD-1 mouse at 1 mg/kg, po and 0.5 mg/kg, iv bolus; assay type: ADME, organism-based; conditions: in vivo
[5] = biological target: T1, Protein cereblon/Androgen receptor (Homo sapiens, UniProt P10275+Q96SW2); assay: PROTAC activity at AR/CRBN in human LNCaP cells assessed as maximal protein degradation measured after 24 hrs incubation by imaging IF assay relative to control; assay type: cell-based
Target sequence in this assay (P10275 whole entry, looked up): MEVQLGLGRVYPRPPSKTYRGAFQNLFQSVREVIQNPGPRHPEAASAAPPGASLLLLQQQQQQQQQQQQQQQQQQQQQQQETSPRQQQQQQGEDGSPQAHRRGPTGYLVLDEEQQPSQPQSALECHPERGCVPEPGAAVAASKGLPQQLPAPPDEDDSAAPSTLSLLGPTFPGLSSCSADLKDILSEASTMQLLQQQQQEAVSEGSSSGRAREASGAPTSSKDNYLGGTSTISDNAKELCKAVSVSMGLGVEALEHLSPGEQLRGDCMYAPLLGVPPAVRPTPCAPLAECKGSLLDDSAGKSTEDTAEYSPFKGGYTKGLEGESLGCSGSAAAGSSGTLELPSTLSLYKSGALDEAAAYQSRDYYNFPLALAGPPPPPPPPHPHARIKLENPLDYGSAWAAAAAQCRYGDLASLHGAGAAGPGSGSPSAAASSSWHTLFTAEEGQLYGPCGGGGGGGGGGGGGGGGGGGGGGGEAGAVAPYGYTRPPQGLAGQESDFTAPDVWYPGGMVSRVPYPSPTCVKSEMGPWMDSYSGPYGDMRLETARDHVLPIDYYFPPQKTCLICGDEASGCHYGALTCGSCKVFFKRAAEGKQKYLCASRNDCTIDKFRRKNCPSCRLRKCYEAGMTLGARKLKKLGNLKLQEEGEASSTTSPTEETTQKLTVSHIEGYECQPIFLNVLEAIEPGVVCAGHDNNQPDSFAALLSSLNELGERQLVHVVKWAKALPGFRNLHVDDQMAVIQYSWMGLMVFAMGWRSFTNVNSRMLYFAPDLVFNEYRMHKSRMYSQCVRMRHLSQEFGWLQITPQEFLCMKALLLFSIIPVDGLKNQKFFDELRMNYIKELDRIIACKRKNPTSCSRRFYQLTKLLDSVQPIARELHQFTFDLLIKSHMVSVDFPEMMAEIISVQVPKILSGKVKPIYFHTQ
Target sequence in this assay (Q96SW2 whole entry, looked up): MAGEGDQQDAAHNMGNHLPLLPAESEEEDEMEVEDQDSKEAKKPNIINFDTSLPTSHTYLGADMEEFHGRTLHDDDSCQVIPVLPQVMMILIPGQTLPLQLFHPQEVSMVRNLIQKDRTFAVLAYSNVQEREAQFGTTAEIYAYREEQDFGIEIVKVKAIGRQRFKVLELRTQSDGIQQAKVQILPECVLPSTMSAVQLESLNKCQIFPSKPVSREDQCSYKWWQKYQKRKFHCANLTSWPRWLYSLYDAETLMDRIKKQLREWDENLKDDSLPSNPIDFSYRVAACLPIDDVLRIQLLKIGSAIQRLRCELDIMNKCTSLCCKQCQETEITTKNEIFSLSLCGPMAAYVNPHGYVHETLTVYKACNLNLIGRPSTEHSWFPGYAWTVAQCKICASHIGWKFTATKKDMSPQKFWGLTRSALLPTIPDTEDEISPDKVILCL

[6] = Oral bioavailability in Han Wistar rat at 1 mg/kg; assay type: ADME, organism-based; conditions: in vivo
[7] = Metabolic stability in human liver microsomes assessed as intrinsic clearance; assay type: ADME, Microsome; conditions: read-out: CLH
[8] = biological target: T1, Protein cereblon/Androgen receptor; assay: PROTAC activity at AR/CRBN in human LNCaP cells assessed as protein degradation measured after 24 hrs incubation by imaging IF assay; assay type: cell-based
Target sequence in this assay (P10275 whole entry): as the sequence (P10275 whole entry, looked up) above
Target sequence in this assay (Q96SW2 whole entry): as the sequence (Q96SW2 whole entry, looked up) above

[9] = Oral bioavailability in CD-1 mouse at 1 mg/kg; assay type: ADME, organism-based; conditions: in vivo
[10] = Permeability of compound in human Caco-2 cells; assay type: ADME, cell-based
[11] = Half life in Han Wistar rat at 1 mg/kg, po and 0.5 mg/kg, iv bolus; assay type: ADME, organism-based; conditions: in vivo
[12] = Half life in CD-1 mouse at 1 mg/kg, po and 0.5 mg/kg, iv bolus; assay type: ADME, organism-based; conditions: in vivo
[13] = Oral bioavailability in Beagle dog at 1 mg/kg; assay type: ADME, organism-based, Canis lupus familiaris; conditions: in vivo
[14] = Volume of distribution at steady state in Han Wistar rat at 1 mg/kg, po and 0.5 mg/kg, iv bolus; assay type: ADME, organism-based; conditions: in vivo
[15] = Aqueous solubility of compound at pH 7.4 buffer; assay type: physicochemical
[16] = Volume of distribution at steady state in CD-1 mouse at 1 mg/kg, po and 0.5 mg/kg, iv; assay type: ADME, organism-based; conditions: in vivo
[17] = Half life in Beagle dog at 1 mg/kg, po and 0.5 mg/kg, iv infusion over 0.25 hrs; assay type: ADME, organism-based, Canis lupus familiaris; conditions: in vivo
LNCaP C4-2 = assay: In vivo degradation of AR in human LNCaP C4-2 cells xenografted in mouse model assessed as tumor growth inhibition at 50 mg/kg, po once daily measured after 28 days relative to control; assay type: functional, organism-based; conditions: time 28.0 day
[18] = biological target: von Hippel-Lindau disease tumor suppressor/Androgen receptor (Homo sapiens) (UniProt P10275+P40337); assay: PROTAC activity at AR/VHL in human LNCaP cells assessed as maximal protein degradation measured after 24 hrs incubation by imaging IF assay relative to control; assay type: cell-based
[19] = tested on: Protein cereblon/Androgen receptor (Homo sapiens), P10275+Q96SW2 [L702H]; assay: PROTAC activity at CRBN/AR L702H mutant (unknown origin) expressed in human LNCaP cells assessed as maximal protein degradation measured after 24 hrs incubation by imaging IF assay relative to control; assay type: cell-based

Protein cereblon/Androgen receptor (Homo sapiens, UniProt P10275+Q96SW2, L702H), sequence (P10275 whole entry L702H, stated change not applied): as the sequence (P10275 whole entry, looked up) above, with L702H counted along it
Protein cereblon/Androgen receptor (Homo sapiens, UniProt P10275+Q96SW2, L702H), sequence (Q96SW2 whole entry, stated change not applied): as the sequence (Q96SW2 whole entry, looked up) above
von Hippel-Lindau disease tumor suppressor/Androgen receptor (Homo sapiens), sequence (P10275 whole entry, looked up): as the sequence (P10275 whole entry, looked up) above
von Hippel-Lindau disease tumor suppressor/Androgen receptor (Homo sapiens), sequence (P40337 whole entry, looked up): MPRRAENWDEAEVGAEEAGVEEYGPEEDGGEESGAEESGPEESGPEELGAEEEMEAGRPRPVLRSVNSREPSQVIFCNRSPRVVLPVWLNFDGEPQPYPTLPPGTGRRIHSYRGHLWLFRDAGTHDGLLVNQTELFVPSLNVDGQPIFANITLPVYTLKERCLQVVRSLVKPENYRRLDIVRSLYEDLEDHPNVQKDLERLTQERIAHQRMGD

Q: Which half-life [1] does the source give for `N#Cc1ccc(N2CCC(c3ccc(OCCCCN4CCN(c5ccc6c(c5)CN(C5CCC(=O)NC5=O)C6=O)CC4)cc3)CC2)cc1C(F)(F)F` (stereo unspecified) here?
A: The half-life was 5 h.

Q: And the Vdss [2]?
A: Its Vdss is 7.1 L/kg.

Q: What about the DC50 [3] of the same compound?
A: Its DC50 is > 3000 nM.

Q: And the Vdss [4]?
A: The Vdss was 5.2 L/kg.

Q: And the Emax [5]?
A: The Emax was 97%.

Q: And the bioavailability [6]?
A: The bioavailability was 20%.

Q: And the microsomal CLint [7]?
A: The microsomal CLint was 10 µL/min/mg.

Q: What about the DC50 [8] of the same compound?
A: The DC50 was 7 nM.

Q: And the bioavailability [9]?
A: Its bioavailability is 47%.

Q: What about the Papp [10] of the same compound?
A: Its Papp is < 0.05 ×10⁻⁶ cm/s.

Q: What about the half-life [11] of the same compound?
A: The half-life was 6.6 h.

Q: And the half-life [12]?
A: Its half-life is 5 h.

Q: What about the bioavailability [13] of the same compound?
A: The bioavailability was 8%.

Q: And the Vdss [14]?
A: The Vdss was 6.2 L/kg.

Q: What about the solubility [15] of the same compound?
A: Its solubility is < 2 µM.

Q: And the Vdss [16]?
A: The Vdss was 5.2 L/kg.

Q: And the half-life [17]?
A: Its half-life is 53.5 h.

Q: Which Activity (LNCaP C4-2) does the source give for `CNC(=O)c1ccc(N2C(=S)N(c3ccc(C#N)c(C(F)(F)F)c3)C(=O)C2(C)C)cc1F` here?
A: The Activity was “Active”.

Q: Which Emax [5] does the source give for `N#Cc1ccc(N2CCC(c3ccc(N4CCC(CN5CCN(c6cc7c(cc6F)C(=O)N(C6CCC(=O)NC6=O)C7)CC5)CC4)cc3)CC2)cc1C(F)(F)F` (stereo unspecified) here?
A: The Emax was 92%.

Q: And the microsomal CLint [7]?
A: Its microsomal CLint is < 3 µL/min/mg.

Q: What about the DC50 [8] of the same compound?
A: Its DC50 is 180 nM.

Q: Which Emax [18] does the source give for `Cc1ncsc1-c1ccc([C@H](C)NC(=O)[C@@H]2C[C@@H](O)CN2C(=O)[C@@H](NC(=O)COCCCCCNc2ccc(C(=O)N[C@H]3C(C)(C)[C@H](Oc4ccc(C#N)c(Cl)c4)C3(C)C)cc2)C(C)(C)C)cc1` here?
A: The Emax was 100%.

Q: For `N#Cc1ccc(N2CCC(c3ccc(OCCCCN4CCN(c5ccc6c(c5)CN(C5CCC(=O)NC5=O)C6=O)CC4)cc3)CC2)c(F)c1C(F)(F)F` (stereo unspecified), which half-life [1] is on record?
A: The half-life was 7 h.

Q: What about the Emax [19] of the same compound?
A: Its Emax is 78%.

Q: And the DC50 [3]?
A: Its DC50 is 107 nM.

Q: And the Emax [5]?
A: Its Emax is 100%.

Q: What about the DC50 [8] of the same compound?
A: Its DC50 is 9 nM.

Q: And the bioavailability [9]?
A: The bioavailability was 30%.

Q: What about the Vdss [16] of the same compound?
A: Its Vdss is 3.4 L/kg.

Q: For `N#Cc1ccc(N2CCC(c3ccc(N4CCC(CN5CCN(c6ccc7c(c6)CN(C6CCC(=O)NC6=O)C7=O)CC5)CC4)cc3)CC2)c(F)c1C(F)(F)F` (stereo unspecified), which half-life [1] is on record?
A: Its half-life is 19.5 h.

Q: What about the DC50 [3] of the same compound?
A: Its DC50 is 77 nM.

Q: What about the Emax [5] of the same compound?
A: Its Emax is 95%.

Q: What about the DC50 [8] of the same compound?
A: Its DC50 is 23 nM.

Q: What about the bioavailability [9] of the same compound?
A: The bioavailability was 48%.

Q: What about the Vdss [16] of the same compound?
A: The Vdss was 2 L/kg.

Q: Which results are given for `N#Cc1ccc(N2CCC(c3ccc(N4CCC(CN5CCN(c6ccc7c(c6)CN(C6CCC(=O)NC6=O)C7=O)CC5)CC4)cc3)CC2)c(Cl)c1C(F)(F)F` (stereo unspecified)?
A: DC50 [3]: 144 nM; Emax [5]: 80%; DC50 [8]: 48 nM

Q: What does the source list for `COc1cc(N2CCN(CC3CCN(c4ccc(C5CCN(c6ccc(C#N)c(C(F)(F)F)c6)CC5)cc4)CC3)CC2)cc2c1C(=O)N(C1CCC(=O)NC1=O)C2` (stereo unspecified)?
A: half-life [1]: 6.8 h; Vdss [2]: 13 L/kg; DC50 [3]: > 3000 nM; Vdss [4]: 2.4 L/kg; Emax [5]: 92%; bioavailability [6]: 27%; microsomal CLint [7]: < 3 µL/min/mg; DC50 [8]: 26 nM; bioavailability [9]: 50%; Papp [10]: < 0.05 ×10⁻⁶ cm/s; half-life [11]: 9.1 h; half-life [12]: 6.8 h; bioavailability [13]: 19%; Vdss [14]: 7.8 L/kg; solubility [15]: < 2 µM; Vdss [16]: 2.4 L/kg; half-life [17]: 21 h

Q: With `N#Cc1ccc(N2CCC(c3ccc(N4CCC(CN5CCN(c6ccc7c(c6)C(=O)N(C6CCC(=O)NC6=O)C7=O)CC5)CC4)cc3)CC2)c(F)c1C(F)(F)F` (stereo unspecified) as the compound, how does the half-life [1] read?
A: The half-life was 32 h.

Q: What about the Emax [19] of the same compound?
A: The Emax was 100%.

Q: And the DC50 [3]?
A: The DC50 was 1330 nM.

Q: And the Emax [5]?
A: The Emax was 100%.

Q: And the DC50 [8]?
A: The DC50 was 170 nM.

Q: What about the bioavailability [9] of the same compound?
A: The bioavailability was 77%.

Q: And the Vdss [16]?
A: The Vdss was 6.2 L/kg.

Q: What does the source list for `N#Cc1ccc(N2CCC(c3ccc(N4CCC(CN5CCN(c6cc7c(cc6F)C(=O)N(C6CCC(=O)NC6=O)C7=O)CC5)CC4)cc3)CC2)c(F)c1C(F)(F)F` (stereo unspecified)?
A: Emax [19]: 100%; DC50 [3]: 992 nM; Emax [5]: 100%; DC50 [8]: 87 nM
